From US8268859B2, “Glucocorticoid mimetics, methods of making them, pharmaceutical compositions and uses thereof” (Boehringer Ingelheim International GmbH, priority 2008, dated 2012) come the findings set out here.

For orientation: IC50 means the point on the concentration scale where inhibition reaches its midpoint.

For one data set, the target named is T1, human glucocorticoid receptor (GR) complex (Homo sapiens, UniProt P04150).
T1 construct: made in house; host or cells: insect expression system (baculovirus lysate)
T1 sequence (P04150 1-777): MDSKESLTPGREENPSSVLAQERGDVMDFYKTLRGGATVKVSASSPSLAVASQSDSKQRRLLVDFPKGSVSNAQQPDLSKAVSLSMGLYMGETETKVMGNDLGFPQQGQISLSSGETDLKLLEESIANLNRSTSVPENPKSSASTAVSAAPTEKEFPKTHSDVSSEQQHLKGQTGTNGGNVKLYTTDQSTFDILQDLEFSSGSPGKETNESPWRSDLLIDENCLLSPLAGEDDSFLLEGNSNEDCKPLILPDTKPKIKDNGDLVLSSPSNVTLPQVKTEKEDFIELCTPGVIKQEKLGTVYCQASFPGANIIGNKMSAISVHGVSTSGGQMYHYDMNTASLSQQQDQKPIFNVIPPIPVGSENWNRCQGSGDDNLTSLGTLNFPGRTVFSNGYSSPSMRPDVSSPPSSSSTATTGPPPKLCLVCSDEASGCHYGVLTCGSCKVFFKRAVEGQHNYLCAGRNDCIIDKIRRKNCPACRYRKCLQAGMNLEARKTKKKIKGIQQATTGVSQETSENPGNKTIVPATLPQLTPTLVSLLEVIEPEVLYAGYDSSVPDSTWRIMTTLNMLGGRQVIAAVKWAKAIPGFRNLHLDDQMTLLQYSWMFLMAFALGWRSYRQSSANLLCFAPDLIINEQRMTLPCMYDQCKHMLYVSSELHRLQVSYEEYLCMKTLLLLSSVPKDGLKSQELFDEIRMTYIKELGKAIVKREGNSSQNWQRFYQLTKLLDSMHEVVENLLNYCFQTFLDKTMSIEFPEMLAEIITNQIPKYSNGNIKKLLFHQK
The experiment in a line: Glucocorticoid receptor fluorescence polarization competitive binding assay.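 Note: GR complex expressed in an insect system, wells lacking compound give full signal, excess unlabeled dexamethasone defines the blank, IC50 from logistic curve fit of polarization.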
Conditions: not given
In the case of `CC(C)(C[C@@](O)(Cc1cc2cc(S(C)(=O)=O)ncc2[nH]1)C(F)(F)F)c1cccc(Br)c1` [(R)-4-(3-Bromophenyl)-1,1,1-trifluoro-2-(5-methanesulfonyl-1H-pyrrolo[2,3-c]pyridin-2-ylmethyl)-4-methylpentan-2-ol], the IC50 came out at 9 nM.

With `CC(C)(C[C@@](O)(Cc1cc2cc(S(C)(=O)=O)ncc2[nH]1)C(F)(F)F)c1ccc(Cl)cc1S(C)(=O)=O` [drawing 13, (R)-4-(4-Chloro-2-methanesulfonylphenyl)-1,1,1-trifluoro-2-(5-methanesulfonyl-1H-pyrrolo[2,3-c]pyridin-2-ylmethyl)-4-methylpentan-2-ol], the IC50 was determined as 36 nM.

`CC(C)(CC(O)(Cc1cc2cc(S(C)(=O)=O)ncc2[nH]1)C(F)(F)F)c1cc(Cl)ccc1S(C)(=O)=O` (stereo not drawn) [4-(5-Chloro-2-methanesulfonylphenyl)-1,1,1-trifluoro-2-(5-methanesulfonyl-1H-pyrrolo[2,3-c]pyridin-2-ylmethyl)-4-methylpentan-2-ol]: the IC50 was 10 nM.

Still in this data set, the particulars now being: Table 1; competition with TAMRA-labeled dexamethasone; read-out: GR IC50.
As to `CC(C)(C[C@@](O)(Cc1cc2nc(S(C)(=O)=O)ccc2[nH]1)C(F)(F)F)c1ccccc1C(N)=O` [2-[(R)-4,4,4-Trifluoro-2-hydroxy-3-(5-meethanesulfonyl-1H-pyrrolo[3,2-b]pyridin-2-ylmethyl)-1,1-dimethylbutyl]benzamide], the IC50 was 32 nM.

In the case of `CC(C)S(=O)(=O)c1cc2cc(CC(O)(CC(C)(C)c3ccccc3S(C)(=O)=O)C(F)(F)F)[nH]c2cn1` (stereo not drawn) [1,1,1-Trifluoro-4-(2-methanesulfonylphenyl)-4-methyl-2-[5-(propane-2-sulfonyl)-1H-pyrrolo[2,3-c]pyridin-2-ylmethyl]pentan-2-ol], the IC50 turned out to be 97 nM.

Take `CC(C)S(=O)(=O)c1cc2cc(CC(O)(CC(C)(C)c3cc(Cl)ccc3S(C)(=O)=O)C(F)(F)F)[nH]c2cn1` (stereo not drawn) [4-(5-Chloro-2-methanesulfonylphenyl)-1,1,1-trifluoro-4-methyl-2-[5-(propane-2-sulfonyl)-1H-pyrrolo[2,3-c]pyridin-2-ylmethyl]pentan-2-ol]: the IC50 turned out to be 17 nM.

In the case of `CCS(=O)(=O)c1cc2cc(CC(O)(CC(C)(C)c3ccc(C)cc3C(N)=O)C(F)(F)F)[nH]c2cn1` (stereo not drawn) [2-[3-(5-Ethanesulfonyl-1H-pyrrolo[2,3-c]pyridin-2-ylmethyl)-4,4,4-trifluoro-3-hydroxy-1,1-dimethylbutyl]-5-methylbenzamide], the IC50 is 80 nM.

Regarding `CCCS(=O)(=O)c1cc2cc(CC(O)(CC(C)(C)c3cc(F)ccc3S(C)(=O)=O)C(F)(F)F)[nH]c2cn1` (stereo not drawn) [1,1,1-Trifluoro-4-(5-fluoro-2-methanesulfonylphenyl)-4-methyl-2-[5-(propane-1-sulfonyl)-1H-pyrrolo[2,3-c]pyridin-2-ylmethyl]pentan-2-ol], the IC50 came to 13 nM.

For `Cc1ccc(C(N)=O)c(C(C)(C)CC(O)(Cc2cc3cc(S(C)(=O)=O)ncc3[nH]2)C(F)(F)F)c1` (stereo not drawn) [4-Methyl-2-[4,4,4-trifluoro-3-hydroxy-3-(5-methanesulfonyl-1H-pyrrolo[2,3-c]pyridin-2-ylmethyl)-1,1-dimethylbutyl]benzamide], the IC50 is 44 nM.

With `CCS(=O)(=O)c1cc2cc(CC(O)(CC(C)(C)c3ccccc3S(C)(=O)=O)C(F)(F)F)[nH]c2cn1` (stereo not drawn) [2-(5-Ethanesulfonyl-1H-pyrrolo[2,3-c]pyridin-2-ylmethyl)-1,1,1-trifluoro-4-(2-methanesulfonylphenyl)-4-methylpentan-2-ol], the IC50 was determined as 44 nM.

As for `CC(C)(CC(O)(Cc1cc2cc(S(C)(=O)=O)ncc2[nH]1)C(F)(F)F)c1cc(F)ccc1S(C)(=O)=O` (stereo not drawn) [1,1,1-Trifluoro-4-(5-fluoro-2-methanesulfonylphenyl)-2-(5-methanesulfonyl-1H-pyrrolo[2,3-c]pyridin-2-ylmethyl)-4-methylpentan-2-ol], the IC50 came to 19 nM.

For the compound `CCS(=O)(=O)c1cc2cc(CC(O)(CC(C)(C)c3ccc(Cl)cc3S(C)(=O)=O)C(F)(F)F)[nH]c2cn1` (stereo not drawn) [drawing 15, 4-(4-Chloro-2-methanesulfonylphenyl)-2-(5-ethanesulfonyl-1H-pyrrolo[2,3-c]pyridin-2-ylmethyl)-1,1,1-trifluoro-4-methylpentan-2-ol], the IC50 is 39 nM.

Regarding `CC(C)(CC(O)(Cc1cc2cc(S(C)(=O)=O)ncc2[nH]1)C(F)(F)F)c1cc(F)ccc1O` (stereo not drawn) [4-Fluoro-2-[4,4,4-trifluoro-3-hydroxy-3-(5-methanesulfonyl-1H-pyrrolo[2,3-c]pyridin-2-ylmethyl)-1,1-dimethylbutyl]phenol], the IC50 is 25 nM.

With `CCS(=O)(=O)c1cc2cc(CC(O)(CC(C)(C)c3ccccc3S(N)(=O)=O)C(F)(F)F)[nH]c2cn1` (stereo not drawn) [2-[3-(5-Ethanesulfonyl-1H-pyrrolo[2,3-c]pyridin-2-ylmethyl)-4,4,4-trifluoro-3-hydroxy-1,1-dimethylbutyl]benzenesulfonamide], the IC50 was determined as 140 nM.

`Cc1ccc(C(C)(C)CC(O)(Cc2cc3nc(S(C)(=O)=O)ccc3[nH]2)C(F)(F)F)c(C(N)=O)c1` (stereo not drawn) [5-Methyl-2-[4,4,4-trifluoro-3-hydroxy-3-(5-methanesulfonyl-1H-pyrrolo[3,2-b]pyridin-2-ylmethyl)-1,1-dimethylbutyl]benzamide]: the IC50 came to 58 nM.

For `CC(C)(CC(O)(Cc1cc2cc(S(C)(=O)=O)ncc2[nH]1)C(F)(F)F)c1cc(F)ccc1Br` (stereo not drawn) [4-(2-Bromo-5-fluorophenyl)-1,1,1-trifluoro-2-(5-methanesulfonyl-1H-pyrrolo[2,3-c]pyridin-2-ylmethyl)-4-methylpentan-2-ol], the IC50 was 6 nM.

For `CCS(=O)(=O)c1cc2cc(CC(O)(CC(C)(C)c3ccc(F)cc3S(C)(=O)=O)C(F)(F)F)[nH]c2cn1` (stereo not drawn) [drawing 16, 2-(5-Ethanesulfonyl-1H-pyrrolo[2,3-c]pyridin-2-ylmethyl)-1,1,1-trifluoro-4-(4-fluoro-2-methanesulfonylphenyl)-4-methylpentan-2-ol], the IC50 came to 29 nM.

For `CC(C)S(=O)(=O)c1cc2cc(CC(O)(CC(C)(C)c3cc(F)ccc3S(C)(=O)=O)C(F)(F)F)[nH]c2cn1` (stereo not drawn) [1,1,1-Trifluoro-4-(5-fluoro-2-methanesulfonylphenyl)-4-methyl-2-[5-(propane-2-sulfonyl)-1H-pyrrolo[2,3-c]pyridin-2-ylmethyl]pentan-2-ol], the IC50 was determined as 71 nM.

On to `Cc1ccc(C(C)(C)CC(O)(Cc2cc3cc(S(=O)(=O)C(C)C)ncc3[nH]2)C(F)(F)F)c(C(N)=O)c1` (stereo not drawn) [5-Methyl-2-{4,4,4-trifluoro-3-hydroxy-1,1-dimethyl-3-[5-(propane-2-sulfonyl)-1H-pyrrolo[2,3-c]pyridin-2-ylmethyl]butyl}benzamide], for which the IC50 was 250 nM.

In the case of `CC(C)(C[C@@](O)(Cc1cc2cc(S(C)(=O)=O)ncc2[nH]1)C(F)(F)F)c1ccc(F)cc1S(C)(=O)=O` [drawing 10, (R)-1,1,1-Trifluoro-4-(4-fluoro-2-methanesulfonylphenyl)-2-(5-methanesulfonyl-1H-pyrrolo[2,3-c]pyridin-2-ylmethyl)-4-methylpentan-2-ol], the IC50 came to 28 nM.

Turning to `CCS(=O)(=O)c1cc2cc(CC(O)(CC(C)(C)c3ccc(Cl)cc3C(N)=O)C(F)(F)F)[nH]c2cn1` (stereo not drawn) [5-Chloro-2-[3-(5-ethanesulfonyl-1H-pyrrolo[2,3-c]pyridin-2-ylmethyl)-4,4,4-trifluoro-3-hydroxy-1,1-dimethylbutyl]benzamide], the IC50 was found to be 44 nM.

Consider `CCS(=O)(=O)c1cc2cc(CC(O)(CC(C)(C)c3cccc(F)c3S(C)(=O)=O)C(F)(F)F)[nH]c2cn1` (stereo not drawn) [2-(5-Ethanesulfonyl-1H-pyrrolo[2,3-c]pyridin-2-ylmethyl)-1,1,1-trifluoro-4-(3-fluoro-2-methanesulfonylphenyl)-4-methylpentan-2-ol], for which the IC50 was found to be 55 nM.

Regarding `CCS(=O)(=O)c1cc2cc(CC(O)(CC(C)(C)c3cc(C)ccc3C(N)=O)C(F)(F)F)[nH]c2cn1` (stereo not drawn) [4-Methyl-2-[4,4,4-trifluoro-3-hydroxy-3-(5-ethanesulfonyl-1H-pyrrolo[2,3-c]pyridin-2-ylmethyl)-1,1-dimethylbutyl]benzamide], the IC50 is 38 nM.

The target of the next data set is human recombinant CYP3A4 (Homo sapiens, UniProt P08684). The experiment in a line: Cytochrome P450 inhibition assay (substrate 7-benzyloxy-4-(trifluoromethyl)coumarin).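 Note: compounds preincubated at least 10 min at 37 °C before adding enzyme plus substrate, reaction run 30 min at 37 °C, ketoconazole standard curve on every plate.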 The format is in vitro ADME. The following applies: Table 1; read-out: CYP3A4 IC50.
human recombinant CYP3A4, sequence (P08684 whole entry): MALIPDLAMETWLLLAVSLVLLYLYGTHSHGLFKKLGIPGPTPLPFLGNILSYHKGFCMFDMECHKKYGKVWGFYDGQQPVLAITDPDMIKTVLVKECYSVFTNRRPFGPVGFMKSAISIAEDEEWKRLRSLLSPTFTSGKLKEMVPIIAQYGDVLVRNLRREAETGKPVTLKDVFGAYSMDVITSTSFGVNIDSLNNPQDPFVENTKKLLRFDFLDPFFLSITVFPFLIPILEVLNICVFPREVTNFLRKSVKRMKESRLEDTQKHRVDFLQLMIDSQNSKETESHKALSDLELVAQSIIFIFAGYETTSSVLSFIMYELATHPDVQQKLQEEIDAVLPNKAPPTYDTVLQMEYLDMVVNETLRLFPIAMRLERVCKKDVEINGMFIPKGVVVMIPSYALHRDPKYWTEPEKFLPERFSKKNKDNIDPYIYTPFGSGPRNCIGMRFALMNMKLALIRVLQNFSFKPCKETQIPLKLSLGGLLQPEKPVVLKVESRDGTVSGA
For `CC(C)S(=O)(=O)c1cc2cc(CC(O)(CC(C)(C)c3ccccc3S(C)(=O)=O)C(F)(F)F)[nH]c2cn1` (stereo not drawn) [1,1,1-Trifluoro-4-(2-methanesulfonylphenyl)-4-methyl-2-[5-(propane-2-sulfonyl)-1H-pyrrolo[2,3-c]pyridin-2-ylmethyl]pentan-2-ol], the IC50 amounted to 22000 nM.

Consider `CC(C)S(=O)(=O)c1cc2cc(CC(O)(CC(C)(C)c3cc(Cl)ccc3S(C)(=O)=O)C(F)(F)F)[nH]c2cn1` (stereo not drawn) [4-(5-Chloro-2-methanesulfonylphenyl)-1,1,1-trifluoro-4-methyl-2-[5-(propane-2-sulfonyl)-1H-pyrrolo[2,3-c]pyridin-2-ylmethyl]pentan-2-ol], for which the IC50 was determined as 6000 nM.

Turning to `CC(C)(C[C@@](O)(Cc1cc2cc(S(C)(=O)=O)ncc2[nH]1)C(F)(F)F)c1cccc(Br)c1` [(R)-4-(3-Bromophenyl)-1,1,1-trifluoro-2-(5-methanesulfonyl-1H-pyrrolo[2,3-c]pyridin-2-ylmethyl)-4-methylpentan-2-ol], the IC50 was found to be 20000 nM.

Still in this data set, the particulars now being: Table 2.
On to `CC(C)(CC(O)(Cc1cc2ccncc2[nH]1)C(F)(F)F)c1ccccc1` (stereo not drawn) [Compound 7, reference compound], for which the “CYP inhibition (in words)” value is recorded as “potent CYP inhibitor”.

The same data set, now with this note: Table 2, comparison compounds; read-out: CYP3A4 Inhibition IC50.
In the case of `CC(C)(CC(O)(Cc1cc2ccncc2[nH]1)C(F)(F)F)c1ccccc1` (stereo not drawn) [Compound 7, reference compound], the IC50 is 900 nM.

Take `CC(C)(CC(O)(Cc1cc2ccncc2[nH]1)C(F)(F)F)c1ccccc1C(N)=O` (stereo not drawn) [Compound 5, reference compound]: the IC50 is 510 nM.

For the compound `CC(C)(CC(O)(Cc1cc2ccncc2[nH]1)C(F)(F)F)c1ccccc1S(C)(=O)=O` (stereo not drawn) [Compound 2, reference compound], the IC50 is 180 nM.
